Key:
OGR1 [1] = target: T1, OGR1 (Homo sapiens, UniProt Q15743); test: Inositol phosphate (IP) formation assay, cells expressing OGR1; type: cell-based; settings: for Inhibition of OGR1-dependent IP formation: stimulated at pH 6.9, micromolar concentrations
T1 construct: His; expressed in transfected cells
Target sequence in this assay (Q15743 whole entry): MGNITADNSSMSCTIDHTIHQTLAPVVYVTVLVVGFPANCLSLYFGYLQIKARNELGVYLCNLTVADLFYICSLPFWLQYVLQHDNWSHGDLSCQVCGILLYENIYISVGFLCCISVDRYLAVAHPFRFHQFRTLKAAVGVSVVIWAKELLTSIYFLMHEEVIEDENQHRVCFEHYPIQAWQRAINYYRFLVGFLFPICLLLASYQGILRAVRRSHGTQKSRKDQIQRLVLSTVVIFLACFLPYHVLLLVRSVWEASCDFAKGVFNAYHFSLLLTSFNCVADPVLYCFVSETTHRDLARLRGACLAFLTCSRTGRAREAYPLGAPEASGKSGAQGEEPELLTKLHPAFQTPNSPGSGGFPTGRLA

[2] = system: MG63 human osteosarcoma cells; test: IP formation in MG63 human osteosarcoma cells (endogenous OGR1 mRNA); type: cell-based
OGR1 [3] = target: T1, OGR1; test: Cytoplasmic calcium transients (Fluo-3, fluorescence-imaging plate reader), CCL39 cells transfected with OGR1; type: cell-based; settings: shift of extracellular pH from pH 7.6; mean+/-sem, N=3
Procedure: Method: Cytoplasmic calcium transients are recorded using the calcium indicator Fluo-3 and a fluorescence-imaging plate reader (Molecular Devices/BucherBiotech, Basel, Switzerland).
CCL39 cells transfected with OGR1 are loaded with the acetoxymethylester of the dye (2 μg/ml) for 1 h at 37° C. in full medium containing 5 mM probenicide to inhibit the multidrug resistance transporter. […] To identify receptor antagonists, test compounds are added during the last 15 minutes of this incubation. After transfer to the reader a baseline is recorded (Fb), and cells are then stimulated by addition of an appropriate amount of stronger buffer (20 mM HEPES, pH 6), inducing acidification.
Alternatively, test compounds are added at this stage to identify agonistic molecules. The fluorescence readout F is normalised calculating F′=(F−Fb)/Fb.
Target sequence in this assay (Q15743 whole entry T18I/I19T): as the sequence (Q15743 whole entry) above, with T18I, I19T counted along it

Human GPR4 [4] = target: T2, Human GPR4 (Homo sapiens, UniProt P46093, E51Q/F19H/F93P/Q349E); test: cAMP formation assay, GPR4; type: cell-based
T2 construct: Human GPR4 is amplified from genomic DNA using primers GPR4F and GPR4R; expressed in transfected cells; host or cells: HEK293 (transient)
Procedure: (§1) Human GPR4 is amplified from genomic DNA using primers GPR4F and GPR4R (5′ CACC ATGGGCAACCACACGTGGGAGGGCTGC 3′ and 5′ TCATTGTGCTGGCGGCAGCATCTTCAGCTGCA 3′ respectively). The PCR reaction mixture contains 0.2 mM dNTPs, 1×PCR buffer containing 1.5 mM MgCl2, 0.5 Units Taq DNA polymerase, 40 pmol each primer and sterile water in a total volume of 50 μl. The template for this reaction is human genomic DNA (Promega, Southampton, UK). PCR is performed using a Biometra T3 Thermocycler using the following cycling conditions: Denaturation at 95° C. for 2 min followed by 35 cycles of denaturation at 95° C. for 15s, annealing at 60° C. for 15 s, and extension at 72° C. for 1 min. A final extension at 72° C. is performed for 7 min. The 1.1 kb PCR product is purified and cloned pcDNA3.1 DN5-His-TOPO (Invitrogen, Paisley, UK).

Human TDAG8 [5] = target: T3, Human TDAG8 (Homo sapiens, UniProt Q8IYL9, A43P/F130I/N97L/Q180E/W80T); test: cAMP formation assay, TDAG8; type: cell-based; settings: CCL39 cells stably expressing the receptor; mean+/-sem, N=6
T3 construct: His; expressed in transfected cells; host or cells: CCL39 (cAMP formation); CCL39 CRE-luc (luciferase reporter)
Procedure: (§2) Stable cell lines expressing TDAG8 are generated in either CCL39 cells or in CCL39 CRE-luc cells which stably express a cAMP-dependent luciferase reporter to detect changes in cAMP in response to ligand. Stable cell lines are generated In the above cell lines by transfecting the TDAG8 cDNA expression construct using Effectene (Qiagen, Basel, Switzerland) according to the manufacturers protocol. Transfected cells are selected in the presence of 400 μg/ml of G418. After 3 weeks of antibiotic selection, individual clones are picked and expanded for further analysis.

Human TDAG8 [6] = target: T3, Human TDAG8; test: cAMP luciferase reporter assay, TDAG8 in CCL39 CRE-luc cells; type: cell-based; settings: CCL39 CRE-luc cells stably expressing the receptor; mean+/-sem, N=7
Procedure: as §2
Cells co-expressing TDAG8 and a cAMP luciferase reporter, as described in Example 8, are plated at 10-20,000 cells per well in white 96 well plates. The day before performing the assay the medium is changed for serum-free DMEM and the cells are incubated overnight at 37° C. in the presence of 5% CO2. […] 100 μl of the appropriate HBS buffer containing the to be tested compound (e.g. from any in-house or commercially available compound library) are then added on the cells. […] Agonists in the assay produce an increase in luminescence whereas antagonists produce a decrease in the luminescence. E.g. antagonists are characterised in the assay by a decrease in luminescence signal compared to the no compound control and e.g. in acidic pH buffer at pH 6.8 or pH 7.0 or at half-maximal activation of human TDAG8. […]

[7] = system: thrombin-stimulated IP formation (endogenous receptors in CCL39 cells); test: Thrombin-stimulated IP formation in CCL39 cells; type: cell-based, hamster; settings: for Effect on thrombin-stimulated IP formation: control CCL39 cells
Human TDAG8 [8] = target: T4, Human TDAG8 (Homo sapiens, UniProt Q8IYL9); test: cAMP formation assay, TDAG8; type: cell-based; settings: TDAG8
T4 construct: His; expressed in transfected cells; host or cells: CCL39 (cAMP formation); CCL39 CRE-luc (luciferase reporter)
Procedure: as §2

Human GPR4 [9] = target: T5, Human GPR4 (Homo sapiens, UniProt P46093); test: cAMP formation assay, GPR4; type: cell-based; settings: GPR4
T5 construct: Human GPR4 is amplified from genomic DNA using primers GPR4F and GPR4R; expressed in transfected cells; host or cells: HEK293 (transient)
Procedure: as §1

[10] = system: forskolin-stimulated adenylyl cyclase; test: Forskolin-stimulated adenylyl cyclase in other cell systems; type: cell-based

T3 sequence (Q8IYL9 whole entry A43P/W80T/N97L/F130I/Q180E): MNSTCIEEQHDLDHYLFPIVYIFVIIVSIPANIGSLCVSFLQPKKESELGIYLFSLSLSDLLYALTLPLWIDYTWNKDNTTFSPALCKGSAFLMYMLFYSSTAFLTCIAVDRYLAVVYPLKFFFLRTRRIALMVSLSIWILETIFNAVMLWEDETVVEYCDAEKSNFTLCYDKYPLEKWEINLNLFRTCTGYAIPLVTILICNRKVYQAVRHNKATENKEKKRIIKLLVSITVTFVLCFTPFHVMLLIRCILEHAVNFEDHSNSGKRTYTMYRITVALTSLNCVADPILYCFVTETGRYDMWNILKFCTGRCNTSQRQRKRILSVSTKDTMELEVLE
T2 sequence (P46093 whole entry F19H/E51Q/F93P/Q349E): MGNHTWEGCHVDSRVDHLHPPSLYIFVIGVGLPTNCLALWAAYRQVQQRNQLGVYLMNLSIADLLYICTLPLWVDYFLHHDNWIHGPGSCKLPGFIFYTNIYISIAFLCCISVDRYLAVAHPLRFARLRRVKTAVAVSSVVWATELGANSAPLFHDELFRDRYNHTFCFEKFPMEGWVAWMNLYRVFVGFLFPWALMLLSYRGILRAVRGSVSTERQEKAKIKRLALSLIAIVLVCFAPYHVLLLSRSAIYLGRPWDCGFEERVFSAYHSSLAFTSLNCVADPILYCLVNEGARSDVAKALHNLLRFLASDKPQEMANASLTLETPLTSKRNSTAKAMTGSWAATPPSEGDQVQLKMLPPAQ
T4 sequence (Q8IYL9 whole entry A43P/W80T/N97L/F130I/Q180E): as the sequence (Q8IYL9 whole entry A43P/W80T/N97L/F130I/Q180E) above
T5 sequence (P46093 whole entry F19H/E51Q/F93P/Q349E): as the sequence (P46093 whole entry F19H/E51Q/F93P/Q349E) above

[H+] [protons]
Half-maximal activation of the receptor (IP formation) (OGR1 [1]; OGR1 expressed in CCL39 hamster fibroblasts, mean+/-sem, N=12, pH referenced to room temperature): 7.48+/−0.04 pH
Hill coefficient of activation (OGR1 [1]; OGR1 in CCL39 hamster fibroblasts, IP formation): > 2
Half-maximal activation of IP formation (OGR1 [1]; transiently transfected HEK cells, mean+/-sem, N=4): 7.38+/−0.04 pH
Halfmaximal activation of IP formation ([2]; mean+/-sem, N=5): 7.46+/−0.01 pH
Half-maximal activation (intracellular calcium response) (OGR1 [3]): 7.20+/−0.04 pH
Half-maximal activation of cAMP formation by GPR4 (Human GPR4 [4]; transiently transfected HEK293 cells, mean+/-sem, N=6): 7.55+/−0.02 pH
Half-maximal activation of cAMP formation by TDAG8 (Human TDAG8 [5]): 7.15+/−0.02 pH
Half-maximal activation of luciferase induction by human TDAG8 (Human TDAG8 [6]): 7.28+/−0.02 pH

[Cu+2] [Cu^2+]
Inhibition of OGR1-dependent IP formation (OGR1 [1]): strongly Inhibit
Effect on pH-stimulated IP formation ([2]; PTX pretreatment, or micromolar concentrations of copper ions): inhibited
Effect on thrombin-stimulated IP formation [7]: without effect

thrombin: bovine thrombin, activates endogenous receptors in CCL39 cells
pH modulation of the response to the receptor agonist (IP formation) ([7]; range of pH 7-8): not positively modulated

[Zn+2] [Zn^2+]
Inhibition of OGR1-dependent IP formation (OGR1 [1]): strongly Inhibit
Effect on thrombin-stimulated IP formation [7]: partial inhibition

CCCCCCCCCCCCC/C=C/[C@@H](O)[C@@H](N)CO[C@@H]1O[C@H](CO)[C@H](O)[C@H](O)[C@H]1O [Psychosine]
Activation of cAMP formation on its own (Human TDAG8 [8]): does not activate cAMP formation on its own

CCCCCCCCCCCCC/C=C/[C@@H](O)[C@@H](N)COP(=O)([O-])OCC[N+](C)(C)C [SPC]
Effect on pH-dependent stimulation of IP formation (OGR1 [1]; CCL39 cells expressing OGR1): does not affect pH-dependent stimulation of IP formation
Stimulation of OGR1 (IP formation) (OGR1 [1]; CCL39 cells expressing OGR1): does not stimulate the receptor
Activation of cAMP formation on its own (Human GPR4 [9]): does not activate cAMP formation on its own
Effect on pH-dependent stimulation of cAMP formation (Human GPR4 [4]; GPR4): does not modulate pH-dependent stimulation
Effect on forskolin-stimulated adenylyl cyclase [10]: inhibiting forskolin-stimulated adenylyl cyclase
